Source: patent publication US20250122191A1, “COMPOUNDS AS BCL-2 INHIBITORS” (Fochon Biosciences, Ltd, priority 2021, published 2025)

Assays:
RS4;11-BCL-2 G101V cells = assay: Cell proliferation assay (MTS), RS4;11-BCL-2 G101V engineered cells; format: cell-based; conditions: Homo sapiens, 120 h, read-out: RS4, 11 BCL2-G101V IC50
In short: (§1)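 Inhibition of mutant BCL-2 is inferred from reduced proliferation of RS4;11 cells stably overexpressing the mutant. Compounds are tested at 1.5–10000 nM for 120 h (G101V, F104L) or 72 h (D103E, D103Y), with MTS absorbance at 490 nm used to derive IC50.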

Toledo cells = assay: Cell proliferation assay (MTS), Toledo cells; format: cell-based; conditions: Homo sapiens, 72 h
In short: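 Toledo cells (RPMI-1640, 10% FBS) seeded at 30000 cells/well, rested 4 h, then exposed 72 h at 37 °C, 5% CO2 to compound at nine final concentrations, 1.5–10000 nM. Viability by MTS (2 h), absorbance at 490 nm. IC50 from the concentration-response.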

RS4;11-BCL-2 F104L cells = assay: Cell proliferation assay (MTS), RS4;11-BCL-2 F104L engineered cells; format: cell-based; conditions: Homo sapiens, 120 h, read-out: RS4, 11 BCL2-F104L IC50
In short: as §1

RS4;11-BCL-2 D103E cells = assay: Cell proliferation assay (MTS), RS4;11-BCL-2 D103E engineered cells; format: cell-based; conditions: Homo sapiens, 72 h, read-out: RS4, 11 BCL2-D103E IC50
In short: as §1

RS4;11-BCL-2 D103Y cells = assay: Cell proliferation assay (MTS), RS4;11-BCL-2 D103Y engineered cells; format: cell-based; conditions: Homo sapiens, 72 h, read-out: RS4, 11 BCL2-D103Y IC50
Excerpt: MTS testing kit was purchased from Promega (Madison, WI, USA). The RPMI-1640, Fetal bovine serum and Penicillin-Streptomycin were purchased from BI (Biological Industries, Beit Haemek, Israel). Puromycin was purchased from Beyotime (shanghai, China). Dimethyl sulfoxide (DMSO) was purchased from Sigma (St. Louis., MO, USA). RS4;11-BCL-2 G101V (Cobioer Lot. #: CBD2021063013P4), RS4;11-BCL-2 D103E (Cobioer Lot. #: CBD2021063013P4), RS4;11-BCL-2 D103Y (Cobioer Lot. #: CBD2022012101P4) and RS4;11-BCL-2 F104L (Cobioer Lot. #: CBD2021063014P4) cells were cultured in RPMI1640 supplemented with 1 ug/mL puromycin, 100 U/mL Penicillin-Streptomycin and 10% FBS.
To investigate whether a compound is able to inhibit the activity of BCL-2 mutation in cells, a mechanism-based assay using engineered cell lines stably overexpressing BCL-2 mutation (RS4;11-BCL-2 G101V, RS4;11-BCL-2 D103E, RS4;11-BCL-2 D103Y, and RS4;11-BCL-2 F104L) was developed. In this assay, the inhibition of BCL-2 mutation was reflected by the inhibition of cell proliferation of engineered RS4;11 cells. Cells were plated into 96-well plates at optimized cell density (RS4;11-BCL-2 G101V: 5000 cells/well; RS4;11-BCL-2 D103E: 7500 cells/well; RS4;11-BCL-2 D103Y: 7500 cells/well; RS4;11-BCL-2 F104L: 5000 cells/well). Plates were incubated at 37° C., with 5% CO2 for 4 h (RS4;11-BCL-2 G101V, RS4;11-BCL-2 F104L) and 24 h (RS4;11-BCL-2 D103E, RS4;11-BCL-2 D103Y), respectively. Compounds were serially diluted and added to the plates with the final concentrations of 10000, 3333.3, 1111.1, 370.4, 123.5, 41.2, 13.7, 4.6 and 1.5 nM. Plates were incubated at 37° C., with 5% CO2 for 120 h (RS4; 11-BCL-2 G101V, RS4; 11-BCL-2 F104L) and 72 h (RS4;11-BCL-2 D103E, RS4;11-BCL-2 D103Y), respectively. 20 μl MTS was added into each well and the plates were incubated at 37° C., with 5% CO2 exactly for 2 h. The absorbance was measured by a microplate reader at 490 nm. IC50 values were calculated using GraphPad Prism 8.0 software.

[1] = Pharmacokinetics assay in rats; format: in vivo; conditions: rat, male Sprague-Dawley rats, po, 5 mg/kg, plasma
Description: The purpose of this study was to determine the pharmacokinetics of Examples in male Sprague-Dawley rats (Supplied by Beijing Vital River Laboratory Animal Technology Co., Ltd.) following a single intravenous bolus injection at 1 mg/kg and oral gavage (PO) administration at 5 mg/kg.
Animals in Group 1 were administered with Examples by single intravenous bolus injection at 1 mg/kg, which was formulated in 10% DMSO (Sigma, Batch #LPCOS181): 60% PEG400 (Sigma, Batch #MKCH6281): 30% water, pH 5-6 at 1 mg/mL as a solution. Animals in Group 2 were administered with Examples by single oral gavage (PO) administration at 5 mg/kg, which was formulated in 10% DMSO (Sigma, Batch #BCCD6641): 60% PEG400 (Sigma, Batch #MKCL4921): 30% water at 1 mg/mL as a solution. Blood samples were collected at 0.083, 0.25, 0.5, 1, 2, 4, 8, 12 and 24 hours post-dose. Concentrations of Examples in plasma were determined by LC/MS/MS (LC: Waters UPLC; MS: Triple Quad 6500 plus).

Row | Structure (SMILES) | IC50 (RS4;11-BCL-2 G101V cells) [nM] | IC50 (RS4;11-BCL-2 F104L cells) [nM] | IC50 (RS4;11-BCL-2 D103E cells) [nM] | IC50 (RS4;11-BCL-2 D103Y cells) [nM] | IC50 (Toledo cells) [nM] | AUC(0-t) [1] [ng·h/mL] | half-life [1] [h] | Cmax ([1]; read-out: Cmax/C0) [ng/mL]
1 | COc1cc(CN2CCN(C3CC4(CCN(c5ccc(C(=O)NS(=O)(=O)c6cnc(NC[C@H]7CC[C@](C)(O)CC7)c([N+](=O)[O-])c6)c(Oc6cc7c(F)c[nH]c7nc6OC)c5)CC4)C3)[C@H](c3ccccc3C(C)C)C2)cnc1C1CC1 [Example 254, 4-(2-((R)-4-((6-cyclopropyl-5-methoxypyridin-3-yl)methyl)-2-(2-isopropylphenyl)piperazin-1-yl)-7-azaspiro[3.5]nonan-7-yl)-2-((3-fluoro-6-methoxy-1H-pyrrolo[2,3-b]pyridin-5-yl)oxy)-N-((6-((((1r,4r)-4-hydroxy-4-methylcyclohexyl)methyl)amino)-5-nitropyridin-3-yl)sulfonyl)benzamide] | 1 | 3 | – | 3 | 1 | – | – | –
2 | COc1cc(CN2CCN(C3CC4(CCN(c5ccc(C(=O)NS(=O)(=O)c6cnc(NC[C@H]7CC[C@](C)(O)CC7)c([N+](=O)[O-])c6)c(Oc6cnc7[nH]cc(F)c7c6)c5)CC4)C3)[C@H](c3ccccc3C(C)C)C2)cnc1C1CC1 [Example 255, 4-(2-((R)-4-((6-cyclopropyl-5-methoxypyridin-3-yl)methyl)-2-(2-isopropylphenyl)piperazin-1-yl)-7-azaspiro[3.5]nonan-7-yl)-2-((3-fluoro-1H-pyrrolo[2,3-b]pyridin-5-yl)oxy)-N-((6-((((1r,4r)-4-hydroxy-4-methylcyclohexyl)methyl)amino)-5-nitropyridin-3-yl)sulfonyl)benzamide] | 1 | 3 | 3 | 1 | 1 | – | – | –
3 | COc1nc2[nH]cc(F)c2cc1Oc1cc(N2CCC3(CC2)CC(N2CCN(Cc4ccc(OC(F)F)cc4)C[C@H]2c2ccccc2C(C)C)C3)ccc1C(=O)NS(=O)(=O)c1cnc(NC[C@H]2CC[C@](C)(O)CC2)c([N+](=O)[O-])c1 [Example 344, 4-(2-((R)-4-(4-(difluoromethoxy)benzyl)-2-(2-isopropylphenyl)piperazin-1-yl)-7-azaspiro[3.5]nonan-7-yl)-2-((3-fluoro-6-methoxy-1H-pyrrolo[2,3-b]pyridin-5-yl)oxy)-N-((6-((((1r,4r)-4-hydroxy-4-methylcyclohexyl)methyl)amino)-5-nitropyridin-3-yl)sulfonyl)benzamide] | 1 | 1 | 1 | 10 | 1 | 5910 | 28.9 | 406

Now from value to compound, other results behind:

Row | IC50 (RS4;11-BCL-2 G101V cells) [nM] | IC50 (RS4;11-BCL-2 F104L cells) [nM] | IC50 (RS4;11-BCL-2 D103E cells) [nM] | IC50 (RS4;11-BCL-2 D103Y cells) [nM] | Structure (SMILES) | IC50 (Toledo cells) [nM] | AUC(0-t) [1] [ng·h/mL] | half-life [1] [h] | Cmax ([1]; read-out: Cmax/C0) [ng/mL]
4 | 1 | 1 | 2 | 9 | COc1ccc(CN2CCN(C3CC4(CCN(c5ccc(C(=O)NS(=O)(=O)c6cnc(NC[C@H]7CC[C@](C)(O)CC7)c([N+](=O)[O-])c6)c(Oc6cc7c(F)c[nH]c7nc6OC)c5)CC4)C3)[C@H](c3ccccc3C(C)C)C2)cc1OC [Example 7, 4-(2-((R)-4-(3,4-dimethoxybenzyl)-2-(2-isopropylphenyl)piperazin-1-yl)-7-azaspiro[3.5]nonan-7-yl)-2-((3-fluoro-6-methoxy-1H-pyrrolo[2,3-b]pyridin-5-yl)oxy)-N-((6-((((1r,4r)-4-hydroxy-4-methylcyclohexyl)methyl)amino)-5-nitropyridin-3-yl)sulfonyl)benzamide] | 1 | – | – | –
5 | 1 | 3 | 1 | 10 | COc1ccc(CN2CCN(C3CC4(CCN(c5ccc(C(=O)NS(=O)(=O)c6cnc(NC[C@H]7CC[C@](C)(O)CC7)c([N+](=O)[O-])c6)c(Oc6cc7c(F)c[nH]c7nc6OC)c5)CC4)C3)[C@H](c3ccccc3C(C)C)C2)cn1 [Example 119, 2-((3-fluoro-6-methoxy-1H-pyrrolo[2,3-b]pyridin-5-yl)oxy)-N-((6-((((1r,4r)-4-hydroxy-4-methylcyclohexyl)methyl)amino)-5-nitropyridin-3-yl)sulfonyl)-4-(2-((R)-2-(2-isopropylphenyl)-4-((6-methoxypyridin-3-yl)methyl)piperazin-1-yl)-7-azaspiro[3.5]nonan-7-yl)benzamide] | 1 | – | – | –
